Source: patent publication US20080214844A1, “Icaritin and desmethylicaritin as anti-cancer agents” (priority 2007, published 2008)

How the values were obtained:
[1] = system: hepatoma or leukemia cell lines; details: other studies; cited from earlier work
[2] = system: highly metastatic human lung cancer cells (PG); details: PG cells in vitro; cited from earlier work
[3] = system: Caki-1; assay: MTT cell viability assay, Caki-1; format: cell-based, human; details: Caki-1, Kidney, 3 days culture
Experimental: (§1) 26 cancer cell lines were grown in normal growth medium in the presence of different concentrations Icaritin or Desmethylicaritin. After culture for 3 days, the cell viability was then measured by an MTT assay. […] Some EC50s were lower than 10 uM for these two compounds. […] Whereas, normal human mammary gland epithelial cells (MCF10A) were not sensitive to Icaritin and Desmethylicaritin. These cells grew well when treated with these two compounds at a concentration of 50 uM.

[4] = system: Widr; assay: MTT cell viability assay, Widr; format: cell-based, human; details: Colon, 3 days culture
Experimental: as §1

[5] = system: LoVo; assay: MTT cell viability assay, LoVo; format: cell-based, human; details: Colon, 3 days culture
Experimental: as §1

[6] = system: estrogen receptor; details: mediated by the estrogen receptor; cited from earlier work
[7] = system: FAS protein levels in LNCaP cells; assay: Western blot analysis for FAS protein levels; format: cell-based, human
[8] = system: D145; assay: MTT cell viability assay, D145; format: cell-based, human; details: D145, Prostate, 3 days culture
Experimental: as §1

[9] = system: Jurkat T cell; assay: MTT cell viability assay, Jurkat T cell; format: cell-based, human; details: Leukemia, 3 days culture
Experimental: as §1

[10] = system: MCF-10a; assay: MTT cell viability assay, MCF-10a normal breast epithelial cells; format: cell-based, human
Experimental: as §1

[11] = system: SKOV3; assay: MTT cell viability assay, SKOV3; format: cell-based, human; details: SKOV3, Ovary, 3 days culture
Experimental: as §1

[12] = system: G-361; assay: MTT cell viability assay, G-361; format: cell-based, human; details: G-361, Skin, 3 days culture
Experimental: as §1

[13] = system: Raji; assay: MTT cell viability assay, Raji; format: cell-based, human; details: Lymphoma, 3 days culture
Experimental: as §1

[14] = system: MCF-7; assay: MTT cell viability assay, MCF-7; format: cell-based, human; details: MCF-7, Breast, 3 days culture
Experimental: as §1

[15] = system: LNCaP cells and MDA-MB-231 cells; assay: Synthesis of lipid classes in cancer cells; format: cell-based, human
Experimental: Icaritin and Desmethylicaritin decrease Lipogenesis in Prostate and Breast Cancer cells via inhibition of fatty acid synthase (FAS) Activity. Protein extracts from LNCaP cells, which had been ^14C-labeled with malonyl-CoA, were pretreated with these two compounds. A concentration of 0.5 μM Icaritin or Desmethylicaritin reduced the in vitro enzymatic FAS activity to less than 50%. […] Consistent with their FAS inhibitory effect, inhibition of lipogenesis by Icaritin and Desmethylicaritin affected the synthesis of phospholipids (including phosphatidylcholine, phosphatidylethanolamine, phosphatidylinositol, phosphatidylserine, and sphingomyelin) and of triglycerides in LNCaP cells and MDA-MB-231 cells. […] Cholesterol synthesis, however, accounts for less than 10% of the total lipogenic activity in LNCaP and MDA-MB-231 cancer cells, whereas ˜75 and 15% of the lipogenic activity in these cells represents phospholipid and triglyceride synthesis, respectively.

[16] = system: HT29; assay: MTT cell viability assay, HT29; format: cell-based, human; details: HT29, Colon, 3 days culture
Experimental: as §1

[17] = system: BT-549; assay: MTT cell viability assay, BT-549; format: cell-based, human; details: BT-549, Breast, 3 days culture
Experimental: as §1

[18] = system: ACHN; assay: MTT cell viability assay, ACHN; format: cell-based, human; details: Kidney, 3 days culture
Experimental: as §1

[19] = system: NCI-H23; assay: MTT cell viability assay, NCI-H23; format: cell-based, human; details: NCI-H23, Lung, 3 days culture
Experimental: as §1

[20] = system: LNCAP; assay: MTT cell viability assay, LNCAP; format: cell-based, human; details: Prostate, 3 days culture
Experimental: as §1

[21] = system: SN12C; assay: MTT cell viability assay, SN12C; format: cell-based, human; details: Kidney, 3 days culture
Experimental: as §1

[22] = system: MDA-MB-231; assay: MTT cell viability assay, MDA-MB-231; format: cell-based, human; details: MDA-MB-231, Breast, 3 days culture
Experimental: as §1

[23] = system: U-251; assay: MTT cell viability assay, U-251; format: cell-based, human; details: U-251, Glioblastoma, 3 days culture
Experimental: as §1

[24] = system: HCT-116; assay: MTT cell viability assay, HCT-116; format: cell-based, human; details: HCT-116, Colon, 3 days culture
Experimental: as §1

[25] = system: CCL-225; assay: MTT cell viability assay, CCL-225; format: cell-based, human; details: CCL-225, Colon, 3 days culture
Experimental: as §1

[26] = system: Mid PaCa-2; assay: MTT cell viability assay, Mid PaCa-2; format: cell-based, human; details: Mid PaCa-2, Pancreas, 3 days culture
Experimental: as §1

[27] = system: IGROV1; assay: MTT cell viability assay, IGROV1; format: cell-based, human; details: IGROV1, Ovary, 3 days culture
Experimental: as §1

[28] = system: CCL-247; assay: MTT cell viability assay, CCL-247; format: cell-based, human; details: CCL-247, Colon, 3 days culture
Experimental: as §1

[29] = system: SK-MEL-5; assay: MTT cell viability assay, SK-MEL-5; format: cell-based, human; details: SK-MEL-5, Skin, 3 days culture
Experimental: as §1

[30] = system: MDA-MB-435; assay: MTT cell viability assay, MDA-MB-435; format: cell-based, human; details: MDA-MB-435, Breast, 3 days culture
Experimental: as §1

[31] = system: A549; assay: MTT cell viability assay, A549; format: cell-based, human; details: A549, Lung, 3 days culture
Experimental: as §1

[32] = system: 786-O; assay: MTT cell viability assay, 786-O; format: cell-based, human; details: Kidney, 3 days culture
Experimental: as §1

[33] = system: PC3; assay: MTT cell viability assay, PC3; format: cell-based, human; details: PC3, Prostate, 3 days culture
Experimental: as §1

[34] = system: AU-565; assay: MTT cell viability assay, AU-565; format: cell-based, human; details: AU-565, Breast, 3 days culture
Experimental: as §1

SMILES: COc1ccc(-c2oc3c(CC=C(C)C)c(O[C@@H]4O[C@H](CO)[C@@H](O)[C@H](O)[C@H]4O)cc(O)c3c(=O)c2O[C@@H]2O[C@@H](C)[C@H](O)[C@@H](O)[C@H]2O)cc1 [ICA, Icariin]
- inhibition of hepatoma or leukemia cell lines [1]: no inhibition
- PG cells adhesive ratio to laminin substrate [2]: decreased
- ability of invasion or migration [2]: decreased
- cAMP/cGMP ratio [2]: increased
- distribution of PG cells cycle [2]: reduce S phase
- expression of membrane HLA-ABC antigen [2]: increase
- level of cAMP in PG cells [2]: increased
- level of cGMP [2]: reduced
- membrane fluidity of PG [2]: enhance

SMILES: CC(C)=CCc1c(O)cc(O)c2c(=O)c(O)c(-c3ccc(O)cc3)oc12 [Desmethylicaritin]
- IC50 [3]: 7.5 µM
- IC50 [4]: 11.3 µM
- IC50 [5]: 10.5 µM
- estrogenic effect [6]: week phytoestrogens
- FAS protein levels (Western blot) [7]: did not influence
- IC50 [8]: 9.8 µM
- IC50 [9]: 4.9 µM
- IC50 ([10]; MCF-10a, Normal breast epithelial cells, 3 days culture, MTT): > 50 µM
- sensitivity of normal human mammary gland epithelial cells (MCF10A) ([10]; cells grew well at 50 uM): not sensitive
- IC50 [11]: 10.4 µM
- IC50 [12]: 7.4 µM
- IC50 [13]: 5.2 µM
- IC50 [14]: 24.8 µM
- synthesis of cholesterol ([15]; LNCaP and MDA-MB-231 cells): decreased
- synthesis of phospholipids and of triglycerides ([15]; LNCaP cells and MDA-MB-231 cells): affected
- IC50 [16]: 16.8 µM
- IC50 [17]: 9.6 µM
- IC50 [18]: 9.7 µM
- IC50 [19]: 6.5 µM
- IC50 [20]: 6.1 µM
- IC50 [21]: 15.9 µM
- IC50 [22]: 6.5 µM
- IC50 [23]: 7.3 µM
- IC50 [24]: 6.9 µM
- IC50 [25]: 8.9 µM
- IC50 [26]: 8.6 µM
- IC50 [27]: 11.2 µM
- IC50 [28]: 17.6 µM
- IC50 [29]: 10.8 µM
- IC50 [30]: 12.7 µM
- IC50 [31]: 10.7 µM
- IC50 [32]: 10.9 µM
- IC50 [33]: 10.6 µM
- IC50 [34]: 8.9 µM
